Measurements reported in patent US8283009B2, “Use of a material based on a thermoplastic polymer having a high content of antioxidants for packaging dianhydrohexitols” (Roquette Freres, priority 2007, dated 2012).

Columns and labels:
[1] = Analysis for peroxides on the packaged product after storage; format: physicochemical; details: packaged in accordance with the invention (PE + carbon black); 50° C.; after 4 months of storage
[2] = Storage stability of isosorbide in sealed packaging sachets at 50° C., pH-metry; format: physicochemical
Text: 50 g of isosorbide in solid form (flakes) are introduced into a sachet (25 cm×25 cm) constituted of the packaging material to be tested. The sachet is immediately sealed by welding using an impulse heat sealer (model SZ 380 sold by Joisten & Kettenbaum GmbH & Co, Bergisch Gladbach, Germany). The thus sealed sachet is in turn introduced into a second sachet made of aluminum comprising a polyethylene coating, sealed by welding using the same heat sealer in order to ensure leaktightness with respect to the external atmosphere. The samples thus packaged are placed in a ventilated oven, thermostatted at a temperature of 50° C. A control sample is enclosed in a glass flask and stored under the same conditions.
After a given period, the whole of the sample of isosorbide is extracted from the packagings and dissolved to 40% by weight of solids in osmosed water. […]

Structure (SMILES): O[C@@H]1CO[C@H]2[C@@H]1OC[C@@H]2O [isosorbide, 1,4:3,6-dianhydrosorbitol]
- presence of peroxides (markers of oxidation phenomena, instability) [1]: did not show any presence of peroxides
- drop in pH after storage ([2]; packaged in accordance with the invention (PE + carbon black), after 4 months of storage): no drop in pH
- pH of the solution ([2]; packaging PE + carbon black (according to the invention), storage 0 day, 40% by weight of solids in osmosed water): pH 7.6
- pH of the solution ([2]; packaging PE + carbon black (according to the invention), storage 1 month, 40% by weight in osmosed water): pH 7.3
- pH of the solution ([2]; packaging PE + carbon black (according to the invention), storage 1.5 month, 40% by weight in osmosed water): pH 7.4
- pH of the solution ([2]; packaging PE + carbon black (according to the invention), storage 2 months, 40% by weight in osmosed water): pH 7.5
- pH of the solution ([2]; packaging PE + carbon black (according to the invention), storage 2 weeks, 40% by weight in osmosed water): pH 7.2
- pH of the solution ([2]; packaging PE + carbon black (according to the invention), storage 2.5 months, 40% by weight in osmosed water): pH 7.5
- pH of the solution ([2]; packaging PE + carbon black (according to the invention), storage 3 months, 40% by weight in osmosed water): pH 7.6
- pH of the solution ([2]; packaging PE + carbon black (according to the invention), storage 4 months, 40% by weight in osmosed water): pH 7.7
- pH of the solution ([2]; packaging Sachet 1 (comp.) branched/linear polyethylene 50%/50%, storage 0 day, 40% by weight in osmosed water): pH 7.6
- pH of the solution ([2]; packaging Sachet 1 (comp.) branched/linear polyethylene 50%/50%, storage 1 month, 40% by weight in osmosed water): pH 7.4
- pH of the solution ([2]; packaging Sachet 1 (comp.) branched/linear polyethylene 50%/50%, storage 1.5 month, 40% by weight in osmosed water): pH 7.4
- pH of the solution ([2]; packaging Sachet 1 (comp.) branched/linear polyethylene 50%/50%, storage 2 weeks, 40% by weight in osmosed water): pH 7.5
- pH of the solution ([2]; packaging Sachet 2 (comp.) branched/linear polyethylene 70%/30%, storage 0 day, 40% by weight in osmosed water): pH 7.6
- pH of the solution ([2]; packaging Sachet 2 (comp.) branched/linear polyethylene 70%/30%, storage 2 weeks, 40% by weight in osmosed water): pH 7.5
- pH of the solution ([2]; packaging Sachet 3 (comp.) 100% of branched polyethylene, storage 0 day, 40% by weight in osmosed water): pH 7.6
- pH of the solution ([2]; packaging Sachet 4 (comp.) 100% of linear polyethylene, storage 0 day, 40% by weight in osmosed water): pH 7.6
- pH of the solution ([2]; packaging Sachet 4 (comp.) 100% of linear polyethylene, storage 2 weeks, 40% by weight in osmosed water): pH 7.2
- odor after storage ([2]; samples not packaged in accordance with the invention, glass 4 months, sachet 1 2 months, sachets 2 and 4 1 month, sachet 3 2 weeks): characteristic odor of formic acid
